In EP0463456A1, “Phosphorus-containing HMG-CoA reductase inhibitors, new intermediates and their use” (E.R. SQUIBB & SONS, INC., priority 1990, dated 1992):

Target: T1, Human skin fibroblasts (Homo sapiens, UniProt P04035)
T1 sequence (P04035 1-888): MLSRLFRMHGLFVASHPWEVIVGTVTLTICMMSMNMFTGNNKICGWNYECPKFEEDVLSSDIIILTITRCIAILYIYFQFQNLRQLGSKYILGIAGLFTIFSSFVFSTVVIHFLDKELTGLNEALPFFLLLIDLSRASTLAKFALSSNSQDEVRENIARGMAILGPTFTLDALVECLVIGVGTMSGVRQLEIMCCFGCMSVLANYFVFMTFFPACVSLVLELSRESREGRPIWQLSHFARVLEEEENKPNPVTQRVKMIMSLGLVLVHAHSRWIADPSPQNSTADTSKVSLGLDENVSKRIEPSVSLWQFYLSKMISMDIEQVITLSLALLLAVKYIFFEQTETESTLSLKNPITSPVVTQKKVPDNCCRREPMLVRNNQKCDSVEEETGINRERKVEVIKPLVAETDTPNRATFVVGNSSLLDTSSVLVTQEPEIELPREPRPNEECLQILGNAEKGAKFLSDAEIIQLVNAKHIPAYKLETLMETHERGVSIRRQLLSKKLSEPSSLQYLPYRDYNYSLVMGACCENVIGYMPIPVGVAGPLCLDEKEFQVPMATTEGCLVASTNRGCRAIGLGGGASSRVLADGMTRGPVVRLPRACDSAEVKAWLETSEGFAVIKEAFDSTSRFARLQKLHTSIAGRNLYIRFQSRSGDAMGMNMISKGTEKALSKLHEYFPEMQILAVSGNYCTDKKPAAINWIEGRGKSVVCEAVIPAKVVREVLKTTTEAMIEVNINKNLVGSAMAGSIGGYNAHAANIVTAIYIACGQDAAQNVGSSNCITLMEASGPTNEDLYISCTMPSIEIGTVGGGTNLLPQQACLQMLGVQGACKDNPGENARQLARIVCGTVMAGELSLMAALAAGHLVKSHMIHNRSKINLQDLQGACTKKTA
Test: Cholesterol Synthesis in Human Skin Fibroblasts (14C-acetate incorporation into cholesterol)
Type: cell-based
Details: inhibition of 14C-acetate incorporation into cholesterol; 30 minutes preincubation, 4 hours with acetate; read-out: Fibroblasts 150
Method: 3) Cholesterol Synthesis in Human Skin Fibroblasts
Compound selectivity favoring greater inhibitory activity in hepatic tissue would be an attribute for a cholesterol synthesis inhibitor. Therefore, in addition to evaluating cholesterol synthesis inhibitors in hepatocytes, these compounds are also tested for their activity as inhibitors of cholesterol synthesis in cultured fibroblasts. […]
a. Human Skin Fibroblast Cultures
Human skin fibroblasts (passage 7-27) are grown in Eagles' minimal essential medium (EM) containing 10% fetal calf serum. For each experiment, stock cultures are trypsonized to disperse the cell monolayer, counted, and plated in 35 mm tissue culture wells (5x10^S cells/2.0 ml). […]
Induced fibroblast cultures are washed with EMEM100 (Earle's minimal essential medium). […] The organic phase is dried under nitrogen, and the residue resuspended in chloroform:methanol (2:1) (100 µl), and the total sample spotted on silica gel (LK6D) thin-layer plates, V, VO and analyzed as described for hepatocytes.
Inhibition of cholesterol synthesis is determined by comparing the percent of label in the cholesterol peak from control and drug-treated cultures. Results are expressed as 150 values, and are derived from composite dose response curves from two or more experiments. A 95% confidence interval for the 150 value is also calculated from the composite dose response curves.

In the case of “(S)-4-[[[4-(4-Fluorophenyl)-1,2-bis(1-methylethyl)-5-phenyl-1H-pyrrol-3-yl]-ethynyl]hydroxyphosphinyl]-3-hydroxybutanoic acid, dilithium salt [SQ 34,346]”, the IC50 is reported as 2500 nM.
